Test results published in patent US9696297B2, “Method for preparing an X chromosome inactivated female human neural cell” (SALK INSTITUTE FOR BIOLOGICAL STUDIES, priority 2009, dated 2017).
“Also recorded” adds a separate entry of the source.

Assays:
[1] = test system: iPSC-derived neurons; assay: Whole-cell patch clamp recording of spontaneous postsynaptic currents; format: cell-based, human; conditions: for EPSCs: 10-20 μM
Description: Whole-cell patch clamp recordings were performed from cells co-cultured with astrocytes after 6 weeks of differentiation. The bath was constantly perfused with fresh HEPES-buffered saline as described herein. The recording micropipettes (tip resistance 3-6 MΩ) were filled with internal solution described in the Supplemental materials. Recordings were made using Axopatch 200B amplifier (Axon Instruments). Signals were filtered at 2 kHz and sampled at 5 kHz. The whole-cell capacitance was fully compensated. The series resistance was uncompensated but monitored during the experiment by the amplitude of the capacitive current in response to a 10-mV pulse. All recordings were performed at room temperature and chemicals were purchased from Sigma. Frequency and amplitude of spontaneous postsynaptic currents were measured with the Mini Analysis Program software (Synaptosoft, Leonia, N.J.). Statistical comparisons of WT and RTT groups were made using the non-parametric Kolmogorov-Smirnov two-tailed test, with a significance criterion of p=0.05. EPSCs were blocked by CNQX or DNQX (10-20 μM) and IPSPs were inhibited by bicuculine (20 μM).

[2] = test system: WT neurons; assay: VGLUT1 puncta (glutamatergic synapse) quantification in WT-iPSC-derived control neurons; format: cell-based, human; conditions: gentamicin 400 ug/ml, 1 week
Description: Female RTT and control fibroblasts were generated from explants of dermal biopsies following informed consent under protocols approved by the University of California San Diego. The Syn::EGFP or DsRed reporter vector was obtained by cloning the Synapsin-1 promoter in a lentivirus backbone. The shRNA against a target sequence on the human MeCP2 gene was cloned in the LentiLox3.7 lentivirus vector. Retrovirus vectors containing the Oct4, c-Myc, Klf4 and Sox2 human cDNAs from Yamanaka's group (Takahashi et al., 2007, Id.) were obtained from Addgene. Two days after infection, fibroblasts were plated on mitotically inactivated mouse embryonic fibroblasts (Chemicon) with hESC medium. After 2 weeks, iPSC colonies were directly transferred to feeder-free conditions on matrigel-coated dishes (BD) using mTeSRTM1 (StemCell Technologies), and passed manually. […]
Cells were briefly fixed in 4% paraformaldehyde and then permeabilized with 0.5% Triton-X100 in PBS. […] Fluorescent signals were detected using a Zeiss inverted microscope and images were processed with Photoshop CS3 (Adobe Systems). […] For synapse quantification, images were taken by a z-step of 1 μm using Biorad radiance 2100 confocal microscope. Synapse quantification was done blinded to genotype. Only VGLUT1 puncta along Map2-positive processes were counted. […]

[3] = test system: RTT-derived neurons; assay: VGLUT1 puncta (glutamatergic synapse) quantification in RTT-iPSC-derived neurons, rescue experiments; format: cell-based, human; conditions: for VGLUT1 puncta number / glutamatergic synapse number: RTT-derived neurons carrying different MeCP2 mutations, IGF1 10 μg/mL for 1 week
[4] = test system: MeCP2; assay: MeCP2 protein level by Western blot in RTT neurons (Q244X); format: cell-based, human; conditions: gentamicin
[5] = test system: iPSC-derived neuronal networks; assay: Calcium imaging of spontaneous calcium transients in iPSC-derived neuronal networks; conditions: drug treatment, concentration not printed (FIG. 11A, 11C, 11D)
Description: Neuronal networks derived from human iPSCs were previously infected with the lentiviral vector carrying the Syn::DsRed reporter construct. Cell cultures were washed twice with sterile Krebs HepesHEPES Buffer (KHB) (10 mM HEPES, 4.2 mM NaHCO3, 10 mM dextrose, 1.18 mM MgSO4.2H2O, 1.18 mM KH2PO4, 4.69 mM KCl, 118 mM NaCl, 1.29 mM CaCl2; pH 7.3) and incubated with 0.2-0.5 μM Fluo-4AM (Molecular Probes/Invitrogen, Carlsbad, Calif.) in KHB for 40 minutes at room temperature. Excess dye was removed by washing twice with KHB and an additional 20-minute minutes incubation was done to equilibrate intracellular dye concentration and allow de-esterification. Time-lapse image sequences (200×100× magnification) of 5000 frames were acquired at 28 Hz with a region of 336×256 pixels, using a Hamamatsu ORCA-ER digital camera (Hamamatsu Photonics K.K., Hamamatsu City, Japan) with a 488 mm (FITC) filter on an Olympus IX81 inverted fluorescence confocal microscope (Olympus Optical, Tokyo, Japan). […]
ImageJ, an NIH funded open source, JAVA-based morphometric application, was used to allow manual selection of individual cells on the xy-plane of each movie using circles of 4 pixels (˜5 μm) in diameter. Each cell was considered as an individual region of interest (ROIs) and the average fluorescence intensity was calculated for each ROI in each frame using Time Series Analyzer ImageJ plugin. […]

In the case of `CN1CCc2cc3c(cc2[C@H]1[C@@H]1OC(=O)c2c1ccc1c2OCO1)OCO3` [bicuculine], the IPSPs ([1]; 20 μM) is reported as “inhibited”.
gentamicin was tested, and the “number of VGLUT1 puncta in control neurons” value [2] was “lowered”, the “rescue of RTT neurons (VGLUT1 puncta)” value ([3]; RTT neurons, higher gentamicin dose 400 ug/ml, 1 week) was “did not rescue” and the “glutamatergic synapse numbers (VGLUT1 puncta)” value ([3]; RTT-Q244X clones 3 and 4 derived neurons, lower gentamicin dose (100 ug/ml), 1 week) was “increased; also recorded: rescuing; also recorded: rescue”. The “WT MeCP2 protein levels” value ([4]; RTT neurons (Q244X), after 2 weeks (FIG. 10E)) was “increased” and the MeCP2 protein levels ([4]; RTT-Q244X clones 3 and 4 derived neurons, after 1 week) was “increase”.
`O=[N+]([O-])c1cc2nc(O)c(O)nc2cc1[N+](=O)[O-]` [DNQX] was tested, and the EPSCs [1] was “blocked”.
In the case of `N#Cc1cc2[nH]c(=O)c(=O)[nH]c2cc1[N+](=O)[O-]` [CNQX], the EPSCs [1] is reported as “blocked”.
With “IGF1: IGF1 (Peprotech), candidate for pharmacological treatment of RTT” the “VGLUT1 puncta number / glutamatergic synapse number” value [3] was “increased” and the “VGLUT1 puncta number / glutamatergic synapse number” value ([3]; listed as IFG1) was “above normal levels”.
For `COc1ccc(-c2ccc(=N)n(CCCC(=O)O)n2)cc1` [Gabazine], the intracellular calcium transients [5] was “increased”.
